In patent US11040053B2, “Compositions and methods for activating “stimulator of interferon gene”13 dependent signalling” (CHINOOK THERAPEUTICS, INC., priority 2015, dated 2021):
“Also recorded” adds a separate entry of the source.

Legend:
[1] = target: T1, hSTING(REF) (Homo sapiens, UniProt Q86WV6); test: Differential scanning fluorometry (DSF) binding to purified hSTING REF allele; set-up: DNA encoding amino acids 140-379 (amino acid numbering corresponding to Swiss Prot Q86WV6); 6xHIS (N, cleaved yes); SUMO (N, cleaved yes); made in house; host or cells: Rosetta2 (DE3) E. coli; details: for Tm shift compared with non fluorine substituted compounds and 2′3′-(G)(A), in words: FIG. 2, hSTING (REF); for binding relative to OH reference compound, in words / binding relative to naturally produced 2′3′-(G)(A), in words: Table 4 comment, REF allele hSTING
Target sequence in this assay (Q86WV6 140-379): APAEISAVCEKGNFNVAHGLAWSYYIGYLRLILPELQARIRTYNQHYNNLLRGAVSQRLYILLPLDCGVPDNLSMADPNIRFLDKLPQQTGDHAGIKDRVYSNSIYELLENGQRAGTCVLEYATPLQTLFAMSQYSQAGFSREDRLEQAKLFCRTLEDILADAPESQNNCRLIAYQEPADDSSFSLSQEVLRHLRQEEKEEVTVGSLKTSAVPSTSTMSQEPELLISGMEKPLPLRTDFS

[2] = target: T2, reference (REF) STING allele (Homo sapiens, UniProt Q86WV6); test: Cytokine transcript induction (qRT-PCR) in STING^REF/REF hPBMCs; type: cell-based; details: for relative normalized IFNβ expression, in words: FIGS. 8A-B, 2 hours stimulation, 100 μM to 0.1 μM; for cytokine responses (IFNβ, TNFα, IL-6, IFNγ, IL-12p40 expression), in words: FIGS. 9B-13B, 2 hours and 6 hours stimulation
T2 construct: endogenous in cells
T2 sequence (Q86WV6 whole entry): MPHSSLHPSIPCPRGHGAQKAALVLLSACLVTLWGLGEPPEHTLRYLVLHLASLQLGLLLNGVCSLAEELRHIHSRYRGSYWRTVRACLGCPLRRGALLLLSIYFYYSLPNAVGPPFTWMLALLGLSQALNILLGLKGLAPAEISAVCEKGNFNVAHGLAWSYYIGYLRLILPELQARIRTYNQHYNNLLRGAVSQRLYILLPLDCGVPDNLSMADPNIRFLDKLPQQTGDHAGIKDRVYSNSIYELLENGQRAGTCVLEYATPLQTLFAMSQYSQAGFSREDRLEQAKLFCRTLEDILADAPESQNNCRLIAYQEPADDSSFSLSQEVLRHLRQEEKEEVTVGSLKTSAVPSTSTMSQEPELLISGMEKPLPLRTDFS
Experimental: The induction of type I interferon was measured in human primary blood mononuclear cells (hPBMCs) to evaluate the potency of mono- or di-F-CDN compounds as described herein. hPBMCs from two unique donors were used: one donor was homozygous for the wild type (WT) STING allele (STING^WT/WT) and the other donor was homozygous for the so-called reference (REF) STING allele (STING^REF/REF). The STING genotype of these donors was determined by PCR amplification and sequencing: genomic DNA was isolated from 10^4 hPBMCs using Quick Extract DNA Extraction Solution (Epicentre) and was used to amplify regions of exon 3, 6, and 7 of the human STING gene.
Cells were incubated at 37° C., 5% CO2 with concentrations ranging from 100 μM to 0.1 μM of each CDN. After 2 hours (FIGS. 7 and 8) or 2 hours and 6 hours (FIGS. 9-13) stimulation, cells were harvested by centrifugation and washed once with phosphate-buffered saline. Cellular RNA was isolated using the Aurum Total RNA 96 Kit and cDNA was synthesized using the iScript cDNA Synthesis Kit. Target and reference gene expression was assessed by real-time qRT-PCR using PrimePCR probe assays and the CFX96 gene cycler (all reagents and equipment from BioRad). Normalized IFNβ expression was expressed relative to untreated cells. Target genes included type I interferon (IFNβ), Th1-associated cytokines (IFNγ, IL-12p40) and NF-kB dependent inflammatory cytokines (TNFα, IL-6). Reference genes included GUSB alone (FIGS. 7 and 8) or GUSB and HSP90AB1 (FIGS. 9-13).

[3] = system: B16.F10; test: B16.F10 melanoma mouse model, intra-tumoral injection; type: in vivo, C57BL/6 female mice; details: FIG. 15A, IT 10 or 100 μg, three injections, vs HBSS
Experimental: To assess the ability of the fluorinated derivative compounds to promote anti-tumor immunity in diverse murine tumor models, tumor cells were implanted (in 100 μL PBS) subcutaneously on the lower back of 6-8 week old C57BL/6 female mice. Treatments began when tumors reached a volume of approximately 100 mm^3, on approximately day 14 post tumor implantation (see table below for tumor type, number of cells, and day of IT injection). The CDN compounds were administered by IT injection (10 or 100 μg in a total volume of 40 μL HBSS), and repeated every three days for a total of three injections. The compounds 3′3′-RR-(2′F-A)(2′F-A) and 3′3′-RR-(2′F-G)(2′F-A) and control mice given vehicle only (40 μL HBSS) were dosed. Tumors were measured twice weekly.

[4] = target: T1, hSTING(REF); test: IFN-β luciferase reporter in HEK293T cells stably expressing hSTING(REF), digitonin permeabilization; details: FIGS. 6A-B, 0.1 μM to 100 μM and 6.25 μM CDN
Target sequence in this assay (Q86WV6 whole entry, the tested form may be a part): as the sequence (Q86WV6 whole entry) above
Experimental: 24 hours later, cells were stimulated with native and synthetic CDN derivative molecules using digitonin permeabilization to ensure uniform uptake.
After 20 min, the stimulation mixtures were removed and 200 ul of DMEM media supplemented with 10% (vol/vol) fetal bovine serum, 1% L-Glutamine, and 1% Penicillin/Streptomycin was added. Cells were incubated an additional 6 hours (37° C., 5% CO2) and then cell lysates were prepared and reporter gene activity measured on a Spectramax M3 luminometer using the Dual-Glo Luciferase Assay System (Promega, catalog #E2920) as described by the manufacturer. IFNβ firefly luciferase reporter gene activity was normalized to TK renilla luciferase gene activity and plotted as fold induction over activity in unstimulated cells (mean+/−s.e.m.).

[5] = system: HIVgag p55 protein; test: Immunization with HIVgag p55 protein plus CDN, splenocyte IFNγ ELISPOT; type: in vivo, BALB/c mice; details: 1 μg or 5 μg CDN in AddaVax with 5 μg HIVgag p55 s.c., day 7 IFNγ ELISPOT, vs no CDN; for HIVgag p55 antigen specific CD4+ T-cell response, in words: FIG. 16A
Experimental: To determine whether the fluorinated derivatives could elicit HIVgag-specific CD4^+ and CD8^+ T cell responses, BALB/c mice (n=4) were immunized subcutaneously with 0 μg (no CDN), 1 μg or 5 μg of CDN formulated in 2% squalene-and-water (AddaVax, Invivogen) with 5 μg HIVgag p55 protein. Seven days following the vaccination, spleens were harvested from the mice and splenocytes prepared. 2×10^5 splenocytes were stimulated overnight in an IFNγELISPOT assay with media alone (unstimulated) or with 1 μM HIVgag p55 CD4^+ and CD8^+ specific peptides. IFNγ ELISPOTs were developed and quantified using a CTL plate reader and ImmunoSpot software. 3′3′-RR-(2′F-A)(2′F-A) and 3′3′-RR-(2′F-G)(2′F-A) were evaluated for their ability to induce HIVgag-specific immune responses.

[6] = listed as 3′3′-RR-(2′F-A)(2′F-A)

Nc1nc2c(ncn2[C@@H]2O[C@@H]3CO[P@@](=O)(S)O[C@H]4[C@@H](F)[C@H](n5cnc6c(N)ncnc65)O[C@@H]4CO[P@@](=O)(S)O[C@H]3[C@H]2F)c(=O)[nH]1 (stereo in doubt) [Compound 14, 2-Amino-9-((2R,3R,3aR,5R,7aR,9R,10R,10aR,12R,14aR)-9-(6-amino-9H-purin-9-yl)-3,10-difluoro-5,12-dimercapto-5,12-dioxidooctahydro-2H,7H-difuro [3,2-d:3′,2′-j][1,3,7,9]tetraoxa[2,8]diphosphacyclododecin-2-yl)-1,9-dihydro-6H-purin-6-one]
Tm shift compared with non fluorine substituted compounds and 2′3′-(G)(A), in words [1]: increased Tm shift
binding relative to OH reference compound, in words [1]: improved binding
binding relative to naturally produced 2′3′-(G)(A), in words [1]: improved binding
IFNβ transcript level compared to cells similarly dosed with 2′3′-(G)(A) [2]: 12- to 70 fold
relative normalized IFNβ expression, in words ([2]; listed as 3′3′-RR-(2′F-G)(2′F-A)): stimulated dose-dependent production of IFNβ transcript; also recorded: more potent inducers of IFNβ transcript STING^REF/REF hPBMCs than 2′3′-(G)(A); also recorded: extremely potent stimulator of the REF STING allele
cytokine responses (IFNβ, TNFα, IL-6, IFNγ, IL-12p40 expression), in words [2]: induced more robust dose-dependent responses of each of the cytokines tested
tumor volume, in words [3]: induced significant tumor inhibition as compared to HBSS
IFNβ luciferase reporter induction by hSTING(REF), in words [4]: strongly induced IFNβ reporter activity, to a level similar to the endogenous cellular ligand 2′3′-(G)(A)
HIVgag p55 antigen specific CD4+ T-cell response, in words [5]: eliciting significant CD4+ T cell responses against HIVgag p55
HIVgag p55 antigen specific CD8+ T-cell response, in words ([5]; FIG. 16B): elicited significant CD8^+ T cell responses against HIVgag p55

Nc1ncnc2c1ncn2[C@@H]1O[C@@H]2CO[P@@](=O)(S)O[C@H]3[C@@H](F)[C@H](n4cnc5c(N)ncnc54)O[C@@H]3CO[P@@](=O)(S)O[C@H]2[C@H]1F [Compound 6, (2R,3R,3aR,5R,7aR,9R,10R,10aR,12R,14aR)-2,9-bis(6-amino-9H-purin-9-yl)-3,10-difluoro-5,12-dimercaptooctahydro-2H,7H-difuro[3,2-d:3′,2′-j][1,3,7,9]tetraoxa[2,8]diphosphacyclododecine 5,12-dioxide]
hSTING Tm Shift REF ([1]; DSF, 1 mg/ml STING AA140-379, ligand 1 mM): 9.1 °C
Tm shift compared with non fluorine substituted compounds and 2′3′-(G)(A), in words [1]: increased Tm shift
binding relative to OH reference compound, in words [1]: improved binding
binding relative to naturally produced 2′3′-(G)(A), in words [1]: improved binding
relative normalized IFNβ expression, in words [2, 6]: stimulated dose-dependent production of IFNβ transcript; also recorded: more potent inducers of IFNβ transcript STING^REF/REF hPBMCs than 2′3′-(G)(A)
cytokine responses (IFNβ, TNFα, IL-6, IFNγ, IL-12p40 expression), in words [2]: induced more robust responses of all of the cytokines tested
tumor volume, in words [3, 6]: induced significant tumor inhibition as compared to HBSS; also recorded: complete tumor regression at the 100 μg dose
IFNβ luciferase reporter induction by hSTING(REF), in words [4]: strongly induced IFNβ reporter activity, to a level similar to the endogenous cellular ligand 2′3′-(G)(A)
HIVgag p55 antigen specific CD4+ T-cell response, in words [5]: eliciting significant CD4+ T cell responses against HIVgag p55
